Patent publication US7649012B2, “Compounds, pharmaceutical compositions containing same, and methods of use for same” (FASgen, Inc., priority 2002, dated 2010)
≈ marks a conversion by molar mass, not a printed value. Where two headings read alike, the source gives them in different places.

Experiments:
[1] = test system: MCF-7 human breast cancer cells; assay: XTT cytotoxicity assay; assay type: cell-based; settings: MCF7, MCF-7, 72 hours, some cells marked (M)
Description: The XTT assay is a non-radioactive alternative for the [^51 Cr] release cytotoxicity assay. XTT is a tetrazolium salt that is reduced to a formazan dye only by metabolically active, viable cells. The reduction of XTT is measured spectrophotometrically as OD490-OD650.
To measure the cytotoxicity of specific compounds against cancer cells, 9×10^3 MCF-7 human breast cancer cells, obtained from the American Type Culture Collection are plated per well in 96 well plates in DMEM medium with 10% fetal bovine serum, insulin, penicillin, and streptomycin. Following overnight culture at 37° C. and 5% CO2, the compounds to be tested, dissolved in DMSO, are added to the wells in 1 μl volume at the following concentrations: 80, 40, 20, 10, 5, 2.5, 1.25, and 0.625 μg/ml in triplicate. Additional concentrations are tested if required. 1 μl of DMSO is added to triplicate wells are the vehicle control. C75 is run at 40, 20, […], and 5 μg/ml in triplicate as positive controls. After 72 hours of incubation, cells are incubated for 4 hours with the XTT reagent as per manufacturer's instructions (Cell Proliferation Kit II (XTT) Roche). Plates are read at OD490 and OD650 on a Molecular Devices SpectraMax Plus Spectrophotometer. Three wells containing the XTT reagent without cells serve as the plate blank. XTT data are reported as OD490-OD650-Averages and standard error of the mean are computed using SOFTmax Pro software (Molecular Dynamics).
The IC50 for the compounds is defined as the concentration of drug leading to a 50% reduction in OD490-OD650 compared to controls. The OD490-OD650 are computed by the SOFTmax PRO software (Molecular Devices) for each compound concentration. IC50 is calculated by linear regression, plotting the FAS activity as percent of control versus drug concentrations. Linear regression, best-fit line, r^2, and 95% confidence intervals are determined using Prism Version 3.0 (Graph Pad Software).

[2] = Weight loss screen in Balb/C mice; assay type: in vivo; settings: Mus musculus, ip, 60 mg/kg intraperitoneally, read-out: Weight Loss
Description: Balb/C mice (Jackson Labs) are utilized for the initial weight loss screening. Animals are housed in temperature and 12 hour day/night cycle rooms and fed mouse chow and water ad lib. Three mice are utilized for each compound tested with vehicle controls in triplicate per experiment. For the experiments, mice are housed separately for each compound tested three mice to a cage. […] Mice are observed and weighed daily; average weights and standard errors are computed with Excel (Microsoft). The experiment continues until treated animals reach their pretreatment weights. […]

[3] = test system: Enterococcus faecalis (ATCC # 29212); assay: Broth microdilution MIC; assay type: cell-based; settings: Enterococcus faecalis, ATCC29212
Description: (§1) A broth microdilution assay is used to assess the antimicrobial activity of the compounds. […] Microorganisms tested include Staphylococcus aureus (ATCC # 29213), Enterococcus faecalis (ATCC # 29212), Pseudomonas aeruginosa (ATCC # 27853), and Escherichia coli (ATCC # 25922). The assay is performed in two growth media, Mueller Hinton Broth and Trypticase Soy Broth. […] Colonies are suspended in sterile broth so that the turbidity matches the turbidity of a 0.5 McFarland standard. The inoculum is diluted 1:10 in sterile broth (Mueller Hinton or Trypticase soy) and 195 ul is dispensed per well of a 96-well plate. The compounds to be tested, dissolved in DMSO, are added to the wells in 5 ul volume at the following concentrations: 25, 12.5, 6.25, 3.125, 1.56 and 0.78 ug/ml in duplicate. Additional concentrations are tested if required. 5 ul of DMSO added to duplicate wells are the vehicle control. Serial dilutions of positive control compounds, vancomycin (E. faecalis and S. aureus) and tobramycin (E. coli and P. aeruginosa), are included in each run. After 24 hours of incubation at 37° C., plates are read at OD600 on a Molecular Devices SpectraMax Plus Spectrophotometer. Average OD600 values are computed using SOFTmax Pro Software (Molecular Devices) and MIC values are determined by linear regression analysis using Prism version 3.02 (Graph Pad Software, San Diego).

[4] = test system: Escherichia coli (ATCC # 25922); assay: Broth microdilution MIC; assay type: cell-based; settings: for Ecoli/Tsoy(MIC): Trypticase Soy Broth
Description: as §1

[5] = test system: Staphylococcus aureus (ATCC # 29213); assay: Broth microdilution MIC; assay type: cell-based; settings: Staphylococcus aureus, ATCC29213
Description: as §1

[6] = test system: MCF-7 human breast cancer cells; assay: [14C]acetate incorporation into total lipids; assay type: cell-based; settings: Homo sapiens, MCF7, [14C]acetate incorporation into lipids
Description: This assay measures the incorporation of [^14C]acetate into total lipids and is a measure of fatty acid synthesis pathway activity in vitro. It is utilized to measure inhibition of fatty acid synthesis in vitro.
MCF-7 human breast cancer cells cultured as above, are plated at 5×10^4 cells per well in 24-well plates. […] DMSO is added to triplicate wells for a vehicle control. C75 is run at 5 and 10 μg/ml in triplicate as positive controls. After 4 hours of incubation, 0.25 μCi of [^14C]acetate (10 μl volume) is added to each well.
After 2 hours of additional incubation, medium is aspirated from the wells and 800 μl of chloroform:methanol (2:1) and 700 μl of 4 mM MgCl2 is added to each well. Contents of each well are transferred to 1.5 Eppendorf tubes, and spun at full-speed for 2 minutes in a high-speed Eppendorf Microcentrifuge 5415D. After removal of the aqueous (upper) layer, an additional 700 μl of chloroform:methanol (2:1) and 500 μl of 4 mM MgCl2 are added to each tube and then centrifuged for 1 minutes as above. The aqueous layer is removed with a Pasteur pipette and discarded. An additional 400 μl of chloroform:methanol (2:1) and 200 μl of 4 mM MgCl2 are added to each tube, then centrifuged and aqueous layer is discarded. The lower (organic) phase is transferred into a scintillation vial and dried at 40° C. under N2 gas. Once dried, 3 ml of scintillant (APB #NBC5104) is added and vials are counted for ^14C. The Beckman Scintillation counter calculates the average cpm values for triplicates.
The IC50 for the compounds is defined as the concentration of drug leading to a 50% reduction in [^14C]acetate incorporation into lipids compared to controls. […] The average cpm values are computed by the Beckman scintillation counter (Model LS6500) for each compound concentration. Computation of linear regression, best-fit line, r^2, and 95% confidence intervals are calculated using Prism Version 3.0 (Graph Pad Software).

[7] = test system: Pseudomonas aeruginosa (ATCC # 27853); assay: Broth microdilution MIC; assay type: cell-based; settings: for PSAE/MH(MIC): Mueller Hinton Broth; for PSAE/Tsoy(MIC): Trypticase Soy Broth
Description: as §1

[8] = Mueller Hinton Broth, read-out: EF/MH(MIC)
[9] = Mueller Hinton Broth, read-out: SA/MH(MIC)
[10] = Trypticase Soy Broth, read-out: SA/Tsoy(MIC)
[11] = Trypticase Soy Broth, read-out: EF/Tsoy(MIC)

With `C=C/C(C)=C/C1(C)SC(=O)C=C1O` (stereo not drawn) the IC50 [1] was > 80 mg/L, the change in vivo at 60 mg/kg ([2]; 72 h, day3) was 7.8% and the MIC [3, 8] was 220 mg/L (≈ 1120 µM). It also gave an MIC ([4]; Escherichia coli, ATCC25922, Mueller Hinton Broth, read-out: Ecoli/MH(MIC)) of 290 mg/L (≈ 1480 µM), an MIC [5, 9] of 235 mg/L (≈ 1200 µM) and an MIC [5, 10] of 102 mg/L (≈ 520 µM).

Molecule `CCCCCCCCC1(C)SC(=O)C(C)=C1OC` (stereo not drawn) has an IC50 [6] of 63.8 mg/L (≈ 236 µM), an IC50 [1] of 17.3 ± 5.9 mg/L (≈ 64 µM) and an MIC [3, 8] of 208 mg/L (≈ 769 µM). The MIC [3, 11] was 94 mg/L (≈ 348 µM), the “Ecoli/MH(MIC)” value ([4]; Mueller Hinton Broth) was “Neg” and the “Ecoli/Tsoy(MIC)” value [4] was “Neg”. The “PSAE/MH(MIC)” value [7] was “Neg”, the “PSAE/Tsoy(MIC)” value [7] was “Neg” and the MIC [5, 9] was 132 mg/L (≈ 488 µM). The MIC [5, 10] was 108 mg/L (≈ 399 µM).

`CCCCCCCC[C@@]1(C)SC(=O)C=C1OCC(=O)O` showed an IC50 [6] of 13.8 ± 1.1 mg/L (≈ 45.9 µM), an IC50 [1] of 50.3 ± 2.8 mg/L (≈ 167 µM) and an MIC [3, 8] of 77 mg/L (≈ 256 µM). For the same molecule, the MIC [3, 11] was 164 mg/L (≈ 546 µM), the “Ecoli/MH(MIC)” value ([4]; Mueller Hinton Broth) was “Neg” and the “Ecoli/Tsoy(MIC)” value [4] was “Neg”. For the same molecule, the “PSAE/MH(MIC)” value [7] was “Neg”, the “PSAE/Tsoy(MIC)” value [7] was “Neg” and the MIC [5, 9] was 98 mg/L (≈ 326 µM). It also gave an MIC [5, 10] of 60 mg/L (≈ 200 µM).

In the case of `COC1=CC(=O)SC1(C)Cc1ccccc1` (stereo not drawn), the IC50 [1] is reported as 61.3 ± 3.9 mg/L (≈ 262 µM), the MIC [3, 8] is reported as 170 mg/L (≈ 726 µM) and the MIC [3, 11] is reported as 189 mg/L (≈ 807 µM). The “Ecoli/MH(MIC)” value ([4]; Mueller Hinton Broth) was “Neg”, the “Ecoli/Tsoy(MIC)” value [4] was “Neg” and the “PSAE/MH(MIC)” value [7] was “Neg”. For the same molecule, the “PSAE/Tsoy(MIC)” value [7] was “Neg”, the MIC [5, 9] was 83 mg/L (≈ 354 µM) and the MIC [5, 10] was 129 mg/L (≈ 551 µM).

`CCCCCCCCC1(C)SC(=O)C(C(C)O)=C1O` (stereo not drawn) showed an IC50 [6] of 17.6 mg/L (≈ 61.4 µM), an IC50 [1] of 23.9 ± 2.9 mg/L (≈ 83.4 µM) and an MIC [3, 8] of 66 mg/L (≈ 230 µM). For the same molecule, the MIC [3, 11] was 21 mg/L (≈ 73.3 µM), the “Ecoli/MH(MIC)” value ([4]; Mueller Hinton Broth) was “Neg” and the “Ecoli/Tsoy(MIC)” value [4] was “Neg”. For the same molecule, the “PSAE/MH(MIC)” value [7] was “Neg”, the “PSAE/Tsoy(MIC)” value [7] was “Neg” and the MIC [5, 9] was 53.1 ± 0.5 mg/L (≈ 185 µM). It also gave an MIC [5, 10] of 12 ± 0.5 mg/L (≈ 41.9 µM).

For `CCCCCCCCC1(C)SC(=O)C=C1OCC(=O)NNC(=O)c1ccco1` (stereo not drawn), the IC50 [6] was 16.4 mg/L (≈ 40.1 µM), the IC50 [1] was 26.4 mg/L (≈ 64.6 µM) and the change in vivo at 60 mg/kg ([2]; 96 h, day4) was 6.3%.

With `CCCCCCCCC1(C)SC(=O)C=C1OCC(=O)NNC(C)=O` (stereo not drawn) the IC50 [6] was 11.5 mg/L (≈ 32.3 µM), the IC50 [1] was 25.3 mg/L (≈ 71 µM) and the change in vivo at 60 mg/kg ([2]; 96 h, day4) was 5.9%.

Molecule `CCCCCCCCC1(C)SC(=O)C=C1OCC(=O)NNCc1ccc(Cl)cc1` (stereo not drawn) has an IC50 [6] of 10.5 ± 2.6 mg/L (≈ 23.9 µM), an IC50 [1] of 6.7 mg/L (≈ 15.3 µM) and a change in vivo at 60 mg/kg ([2]; 48 h, day2) of 1.4%.

For `C=CCN(C)C(=O)COC1=CC(=O)SC1(C)CCCCCCCC` (stereo not drawn), the IC50 [6] was 25.7 mg/L (≈ 72.7 µM), the IC50 [1] was 9.2 ± 2.2 mg/L (≈ 26 µM) and the change in vivo at 60 mg/kg ([2]; 72 h, day3) was 1.5%.
